In patent publication US12655458B2, “Methods for cyclization of (poly)peptides comprising nγ-hydroxy- or Nγ-amino-L-asparagine” (priority 2021, dated 2026):
“Also recorded” adds a separate entry of the source. Read-outs that look alike come from different tables or passages of the source. Starred links: 1 amine or outer side, 2 acyl side, 3 side chain; linkers in the order of their positions; H or OH if unused. Positions of bridges follow the written chain, without caps; N, C: chain ends. Non-standard residues stand in square brackets, D forms with d. Residues, ends and D or L forms follow the SMILES beside them. No end group written: not given here. *: point of attachment. N(NH2) = N-gamma-amino-L-asparagine, O=C(C[C@H](N[*:1])C(=O)[*:2])NN[*:3]; N(OH) = N-hydroxy-L-asparagine, O=C(C[C@H](N[*:1])C(=O)[*:2])NO; NHOH = ON*

Key:
[1] = enzyme bond, 37.0 °C
VyPAL2 = test: Kinetics of peptide cyclization by VyPAL2; assay type: biochemical; conditions: for Kcat / Km: cyclization by VyPAL2, 37° C., PBS pH 6.5
Sequence of VyPAL2 (as listed by the source): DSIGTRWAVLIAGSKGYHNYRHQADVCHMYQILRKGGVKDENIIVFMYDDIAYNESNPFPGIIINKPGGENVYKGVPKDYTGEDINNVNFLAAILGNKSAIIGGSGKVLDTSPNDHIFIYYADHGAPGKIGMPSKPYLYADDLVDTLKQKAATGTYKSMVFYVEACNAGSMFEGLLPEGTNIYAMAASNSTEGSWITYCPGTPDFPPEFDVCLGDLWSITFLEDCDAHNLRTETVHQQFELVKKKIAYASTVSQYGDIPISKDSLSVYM
Description: (§1) Enzyme-meditated cyclization and ligation reactions were performed in 20 mM PBS buffer (pH 6.5) at 37° C. with 0.5 mM TCEP. The reaction was quenched by adding 20% TFA. The enzyme concentration was determined by the absorbance at 280 nm using Nanodrop. The reactions were monitored by reverse-phase analytical HPLC, and the products were characterized by MALDI-MS or ESI-MS.
(§2) Model peptides (1-6, see Table 51) were used in the kinetic studies. The cyclization reaction was performed in 20 mM PBS buffer (pH 6.5) containing 0.5 mM TCEP, at 37° C. The reaction was monitored by analytical RP-HPLC (5% buffer B-45% buffer B in 20 min). Kinetic constants for these peptides were obtained from the initial reaction rates. To ensure that the measurement of reaction rate was in the range of the initial velocity, the reaction was quenched using 20% TFA, when less than 25% of the substrate has been converted. Each recorded value is an average of measurements in triplicate. All the numbers were input into GraphPad Prism (GraphPad Software, San Diego) to obtain the Michaelis-Menten curve and calculate the kinetic parameters (kcat and Km).
VyPAL2 was expressed using sf9 insect cells as described previously (Hemu et al. PNAS, 2019, 116, 11737-11746). 100 mL of the viral vector containing VyPAL2 gene was used to infect sf9 cells at cell density of 2.5×10^6 cells/mL. MOI for infection was set between 1-10 for protein expression. The culture was incubated at 27° C. shaker for 3 days (72 hours) at 135 rpm. Protein purification was performed in three steps: Immobilized Metal Affinity Chromatography (IMAC), Ion-Exchange Chromatography (IEX), and Size-Exclusion chromatography (SEC). Pro-VyPAL2 was activated at pH 5 in 50 mM sodium citrate buffer (0.1 M NaCl, 1 mM DTT, 0.5 mM LS) for 2-3 h at 37° C. After activation, the activated enzyme was purified by SEC at pH 6.5 (20 mM PBS, 0.1 M NaCl, 1 mM DTT).

butelase-1 [2] = test: Kinetics of peptide cyclization by butelase-1; assay type: biochemical, Clitoria ternatea; conditions: for Kcat / Km: cyclization by butelase-1, 37° C., PBS pH 6.5
Sequence of butelase-1 (as listed by the source): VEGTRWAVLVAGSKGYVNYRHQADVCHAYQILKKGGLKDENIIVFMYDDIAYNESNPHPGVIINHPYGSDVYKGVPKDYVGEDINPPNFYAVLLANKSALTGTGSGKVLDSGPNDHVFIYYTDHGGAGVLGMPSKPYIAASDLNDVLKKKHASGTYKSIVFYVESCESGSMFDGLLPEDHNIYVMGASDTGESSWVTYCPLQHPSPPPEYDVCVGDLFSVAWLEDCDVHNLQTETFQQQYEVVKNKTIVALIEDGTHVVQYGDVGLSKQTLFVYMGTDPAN
Description: as §1, §2
Plant flowers of Clitoria ternatea grown in the Nanyang Technological University Herb Garden were collected. Butelase-1 was extracted using a chromatography method described previously.^5 Purified butelase-1 was obtained and stored at 4° C. or −80° C. in 50 mM sodium phosphate buffer (pH 6.0) containing 1 mM EDTA, 5 mM β-mercaptoethanol, 0.01% Tween 20 and 20% sucrose.

[3] = Stability in human serum by HPLC analysis; assay type: in vitro ADME; conditions: 37° C.
Description: Peptides were mixed with human serum to a final concentration of 100 μM and incubated at 37° C. Aliquots of the sample were taken out at different time points and 10% TFA was added to quench all protease activities, followed by addition of 10% of DMSO. The solution mixture was centrifuged (11,000 g, 5 min, 4° C.) and the supernatant was analysed by RP-HPLC (15% buffer B-65% buffer B in 25 min) and ESI-MS. The quantity of the remaining peptides was determined by comparing their HPLC peak area with the initial peak area.

MMP2 = target: T1, MMP2 (Homo sapiens, UniProt P08253); test: MMPs inhibition assay (FRET substrate), MMP2; assay type: biochemical
T1 construct: purchased Sigma-Aldrich
T1 sequence (P08253 110-660): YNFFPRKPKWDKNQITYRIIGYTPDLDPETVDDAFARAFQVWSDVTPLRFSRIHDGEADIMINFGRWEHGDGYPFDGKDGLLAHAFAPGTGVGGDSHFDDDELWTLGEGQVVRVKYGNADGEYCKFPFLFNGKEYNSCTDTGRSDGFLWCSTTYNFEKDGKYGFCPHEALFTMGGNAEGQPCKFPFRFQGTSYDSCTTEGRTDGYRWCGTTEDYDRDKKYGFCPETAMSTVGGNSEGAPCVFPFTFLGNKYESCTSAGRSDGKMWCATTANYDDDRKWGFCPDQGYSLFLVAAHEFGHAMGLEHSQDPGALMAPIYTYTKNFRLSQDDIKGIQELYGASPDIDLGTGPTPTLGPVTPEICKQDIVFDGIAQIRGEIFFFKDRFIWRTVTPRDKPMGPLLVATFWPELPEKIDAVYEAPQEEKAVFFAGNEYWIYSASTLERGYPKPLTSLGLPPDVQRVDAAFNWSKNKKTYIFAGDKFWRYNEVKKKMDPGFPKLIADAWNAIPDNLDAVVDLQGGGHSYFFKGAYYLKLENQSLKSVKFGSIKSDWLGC
Description: The inhibitory activity of the peptides was determined by measuring the MMPs' protease activity towards a FRET substrate. 0.8 nM MMP2 or MMP9 (Sigma-Aldrich), 10 μM substrate (FAM-Lys-Pro-Leu-Gly-Leu-Lys(Dabcyl)-Ala-Arg-NH2, λex 490 nm; λem 520 nm) and various concentrations of the peptides (0.0001 μM-10 μM or 0.001 μM-100 μM) were used. The reactions were performed in 50 mM Tris-HCl buffer (pH 7.5) containing 150 mM NaCl, 10 mM CaCl2, 0.05% Brij35, at 37° C. MMP2 was pre-incubated with the peptide inhibitors for 10 min before adding the substrate. All the numbers were input into GraphPad Prism (GraphPad Software, San Diego) for IC50 calculation.

butelase 1 = test: Butelase 1-mediated inter-peptide ligation with acyl acceptor GIRGI; assay type: biochemical, Clitoria ternatea; conditions: 400 uM peptide, 3.2 mM GIRGI, 0.01 eq butelase 1, pH 6.5, room temperature
Description: The reaction was conducted using 400 uM of Ac-KYSN(NH2)GL and 3.2 mM of GIRGI (8 eq) in the presence of 0.01 eq butelase 1 in 20 mM PBS buffer (pH 6.5) at room temperature. The ligation product was obtained in >80% yield in 1 h (FIG. 28, lower panel). The fact that Asn(NH2) can be recognized by butelase 1 as a P1 residue for inter-peptide ligation indicates it can also be used to mediate peptide cyclization (FIG. 27).

butelase-1 [4] = test: Inhibitory activity assay of AN(Me)12-HV 7 on butelase-1 cyclization of pB1 peptide; assay type: biochemical, Clitoria ternatea; conditions: 200 μM pB1, 0.001 eq butelase-1, pH 6.5, 37° C., 10 min; increasing concentration of peptide 7
Description: FIG. 7. Inhibitory activity assay of AN(Me)12-HV 7. (a) RP-HPLC trace for cyclization of pB1 peptide ([…]; SEQ ID NO:13). The cyclization reaction was performed at 37° C. in the present of 200 μM of peptide substrates and 0.001 eq of butelase-1 in 20 mM PBS (pH 6.5) for 10 min. The reactions were monitored by RP-HPLC. The cyclic peptide is labelled as c[pB1] and starred HPLC peak is the potentially inhibitory peptide AN(Me)12-HV 7. […] (b) MALDI profiles of pB1 and AN(Me)12-HV 7 before and after treatment with butelase-1.
as §1

[5] = the molecule shown is the open-chain precursor, 102-membered ring, butelase-1 (0.01 eq), 20 mM PBS pH 6.5, 0.4 mM

Compound: H-Gly-Gly-Val-Cys-Pro-Lys-Ile-Leu-Lys-Lys-Cys-Arg-Arg-Asp-Ser-Asp-Cys-Pro-Gly-Ala-Cys-Ile-Cys-Arg-Gly-Asn-Gly-Tyr-Cys-Gly-Ser-Gly-Ser-Asp-Ile-Val-NH2?
- ring closure, conversion [1, 5]: 0%

Compound: AIYRRGRLYRRN(OH)SL (AIYRRGRLYRR[N(OH)]SL-NH2) [Peptide 5]
- catalytic efficiency of VyPAL2, fold higher than DSL peptide 6 (VyPAL2): 28 fold
- catalytic efficiency of VyPAL2, fold lower than NSL peptide 4 (VyPAL2): ~14 fold
- Kcat (VyPAL2): 0.942 ± 0.082 s⁻¹
- Km (VyPAL2): 120 ± 19.2 µM

Compound: cyclo[SYCN(OH)CLCRRGVCRCICTI]
- ring closure, conversion ([1]; 54-membered ring, butelase-1 (0.04 eq), PBS pH 6.5, 0.1 mM): 60%

Compound: H-Gly-Arg-Cys-Thr-Lys-Ser-Ile-Pro-Pro-Ile-Cys-Phe-Pro-Asp-Ile-Val-NH2?
- ring closure, conversion ([1]; the molecule shown is the open-chain precursor, 42-membered ring, butelase-1 (0.01 eq), 20 mM PBS pH 6.5, 0.4 mM): 0%

Compound: H-Gly-Gly-Val-Cys-Pro-Lys-Ile-Leu-Lys-Lys-Cys-Arg-Arg-Asp-Ser-Asp-Cys-Pro-Gly-Ala-Cys-Ile-Cys-Arg-Gly-Asn-Gly-Tyr-Cys-Gly-Ser-Gly-Ser-Asn(OH)-Ile-Val-NH2?
- ring closure, conversion [1, 5]: 95%

Compound: AIYRRGRLYRRN(OH)HV (AIYRRGRLYRR[N(OH)]HV-NH2) [Peptide 2]
- catalytic efficiency of butelase-1, fold higher than DHV peptide 3 (butelase-1 [2]): 48 fold
- catalytic efficiency of butelase-1, fold lower than NHV peptide 1 (butelase-1 [2]): ~6 fold
- Kcat (butelase-1 [2]): 3.46 ± 0.27 s⁻¹
- Km (butelase-1 [2]): 98.8 ± 17.8 µM

Compound: ISYGNDALMP-NH2 [Peptide 8, reference compound]
- metabolised at 32 min, 100 μM ([3]; in 32 min, read-out: degradation in human serum): > 50%
- Ki (MMP2): 60 nM

Compound: Ac-KYSN(NH2)GL (Ac-KYS[N(NH2)]GL-NH2; SMILES CC(=O)N[C@@H](CCCCN)C(=O)N[C@@H](Cc1ccc(O)cc1)C(=O)N[C@@H](CO)C(=O)N[C@@H](CC(=O)NN)C(=O)NCC(=O)N[C@@H](CC(C)C)C(N)=O)
- acyl donor substrate in butelase 1-mediated ligation (butelase 1): good acyl donor substrate

Compound: c[FLaRGN(OH)FLaRGN(OH)]
- ring closure, conversion ([1]; 36-membered ring, butelase-1 (0.01 eq), 20 mM PBS pH 6.5, 0.4 mM): 90%

Compound: CC[C@H](C)[C@H](N)C(=O)N[C@@H](CO)C(=O)N[C@@H](Cc1ccc(O)cc1)C(=O)NCC(=O)N[C@@H](CC(N)=O)C(=O)N[C@@H](CC(=O)NO)C(=O)N[C@@H](C)C(=O)N[C@@H](CC(C)C)C(=O)N[C@@H](CCSC)C(=O)N1CCC[C@H]1C(N)=O [Peptide 9, ISYGNN(OH)ALMP] (H-ISYGND(NHOH)ALMP-NH2)
- improvement of MMP2 inhibitory activity over APP-IP 8 (MMP2; replacement of Asp by Asn(OH)): 2.6 fold

Compound: AIYRRGRLYRRN(Me) HV [Peptide 7]
- recognition by butelase-1 as substrate for cyclization (butelase-1 [2]): not recognized
- inhibition of butelase-1 cyclization of pB1 peptide (butelase-1 [4]): nor did it inhibit the cyclization; also recorded: didn't affect the cyclization rate of pB1

Compound: CC[C@H](C)[C@@H]1NC(=O)[C@H](CO)NC(=O)CNC(=O)[C@@H]2CCCN2C(=O)[C@H](CCSC)NC(=O)[C@H](CC(C)C)NC(=O)[C@H](C)NC(=O)[C@H](CC(=O)NO)NC(=O)[C@H](CCC(N)=O)NC(=O)CNC(=O)[C@H](Cc2ccc(O)cc2)NC(=O)[C@H](CO)NC1=O [Peptide 11, cyclo[SISYGQN(OH)ALMPG]] (cyclo(ALMPGSISYGQD(NHOH)))
- IC50 (MMP2; APP-IP-derived peptides, 0.8 nM MMP2, 10 μM substrate, pH 7.5, 37° C., read-out: IC50 towards MMP2): > 100000 nM
- Ki (MMP2; APP-IP-derived peptides, Ki=IC50/(1+[S]o/Km), read-out: Ki towards MMP2): > 100000 nM

Compound: AIYRRGRLYRRDHV [Peptide 3]
- Kcat (butelase-1 [2]): 0.454 ± 0.02 s⁻¹
- Km (butelase-1 [2]): 630 ± 19.5 µM

Compound: AIYRRGRLYRRDSL [Peptide 6]
- Kcat (VyPAL2): 0.581 ± 0.09 s⁻¹
- Km (VyPAL2): 2070 ± 407 µM

Compound: AIYRRGRLYRRNHV [Peptide 1]
- Kcat (butelase-1 [2]): 14.86 ± 0.34 s⁻¹
- Km (butelase-1 [2]): 67.5 ± 2.8 µM

Compound: H-Gly-Leu-Pro-Val-Cys-Gly-Glu-Thr-Cys-Phe-Gly-Gly-Thr-Cys-Asn-Thr-Pro-Gly-Cys-Ser-Cys-Thr-Trp-Pro-Ile-Cys-Thr-Arg-Asp-Ile-Val-NH2?
- ring closure, conversion ([1]; the molecule shown is the open-chain precursor, 87-membered ring, butelase-1 (0.01 eq), 20 mM PBS pH 6.5, 0.4 mM): 0%

Compound: AIYRRGRLYRRNSL [Peptide 4]
- Kcat (VyPAL2): 4.56 ± 0.24 s⁻¹
- Km (VyPAL2): 42.5 ± 8.83 µM

Compound: CC[C@H](C)[C@@H]1NC(=O)[C@@H]2CSSC[C@H](NC(=O)[C@H](CC(=O)NO)NC(=O)[C@@H]3CSSC[C@H](NC1=O)C(=O)N[C@@H]([C@@H](C)O)C(=O)N[C@@H]([C@@H](C)CC)C(=O)N[C@@H](CO)C(=O)N[C@@H](Cc1ccc(O)cc1)C(=O)N3)C(=O)N[C@@H](CC(C)C)C(=O)N[C@H]1CSSC[C@H](NC(=O)[C@H](C(C)C)NC(=O)CNC(=O)[C@H](CCCNC(=N)N)NC(=O)[C@H](CCCNC(=N)N)NC1=O)C(=O)N[C@@H](CCCNC(=N)N)C(=O)N2 [Peptide 17] (cyclo(CD(NHOH)CLCRRGVCRCICTISY); disulfide 1-14, 3-12, 5-10 (inferred); ring closure inferred)
- stability in human serum ([3]; after 16 h): remained intact
- Ki (MMP2): 2.8 nM
- better MMP2 binding affinity than Asn-RTD-1 19 (MMP2): 13 fold
- better MMP2 binding affinity than Asp-RTD-1 18 (MMP2): 2.3 fold
- improvement of MMP2 Ki over linear Asn(OH)-APP-IP peptide 9 (MMP2): 8.2 fold
- more potent towards MMP2 than MMP9 (selectivity) (MMP2; MMP2 over MMP9): about 1000 fold
